Data published in patent publication US9303025B2, “Apoptosis-inducing agents for the treatment of cancer and immune and autoimmune diseases” (AbbVie Inc., priority 2008, dated 2016).

Each compound was assayed against GST-Bcl-2 (Homo sapiens (Human), UniProt P10415) (assay: Time Resolved-Fluorescence Resonance Energy Transfer (TR-FRET) Bcl-2 binding assay). Conditions: GST-Bcl-2 1 nM, F-Bak peptide probe 100 nM, Tb-anti-GST antibody 1 nM; 3 hours at room temperature; Ki by Wang's equation.
Sequence of GST-Bcl-2 (P10415 whole entry): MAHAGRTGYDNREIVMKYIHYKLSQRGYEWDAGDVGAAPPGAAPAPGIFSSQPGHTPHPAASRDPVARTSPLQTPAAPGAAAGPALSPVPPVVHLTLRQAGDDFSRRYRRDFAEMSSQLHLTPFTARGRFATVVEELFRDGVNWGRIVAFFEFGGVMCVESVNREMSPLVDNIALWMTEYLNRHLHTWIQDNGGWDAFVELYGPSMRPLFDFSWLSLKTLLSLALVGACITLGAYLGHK
Procedure: Tb-anti-GST antibody was purchased from Invitrogen (Catalog No. PV4216).
Representative compounds were serially diluted in dimethyl sulfoxide (DMSO) starting at 50 μM (2× starting concentration; 10% DMSO) and 10 μL were transferred into a 384-well plate. The samples are then mixed on a shaker for 1 minute and incubated for an additional 3 hours at room temperature. For each assay, the probed antibody and protein/probe/antibody were included on each assay plate as negative and positive controls, respectively. Fluorescence was measured on the Envision (Perkin Elmer) using a 340/35 nm excitation filter and 520/525 (F-Bak peptide) and 495/510 nm (Tb-labeled anti-Histidine antibody) emission filters.
The samples were then mixed on a shaker for 1 minute and incubated for an additional 3 hours at room temperature. For each assay, the probe/antibody and protein/probe/antibody were included on each assay plate as negative and positive controls, respectively. Fluorescence was measured on the Envision (Perkin Elmer) using a 340/35 nm excitation filter and 520/525 (F-Bak peptide) and 495/510 nm (Tb-labeled anti-Histidine antibody) emission filters.
The inhibition constant (Ki) is the dissociation constant of an enzyme-inhibitor complex or a protein/small molecule complex, wherein the small molecule is inhibiting binding of one protein to another protein. So a large Ki value indicates a low binding affinity and a small Ki value indicates a high binding affinity.

Compound	Ki [nM]
CC1(C)CCC(CN2CCN(c3ccc(C(=O)NS(=O)(=O)c4ccc(NCCCN5CCCC5)c([N+](=O)[O-])c4)c(Oc4cccc(Cl)c4F)c3)CC2)=C(c2ccc(Cl)cc2)C1 [Example 149, 2-(3-chloro-2-fluorophenoxy)-4-(4-{[2-(4-chlorophenyl)-4,4-dimethylcyclohex-1-en-1-yl]methyl}piperazin-1-yl)-N-({3-nitro-4-[(3-pyrrolidin-1-ylpropyl)amino]phenyl}sulfonyl)benzamide]	0.03
4-(4-{[2-(4-chlorophenyl)-4,4-dimethylcyclohex-1-en-1-yl]methyl}piperazin-1-yl)-N-[(4-{[3-(dimethylamino)propyl]amino}-3-nitrophenyl]-2-(3-fluorophenoxy)benzamide [Example 138]	0.016
CC1(C)CCC(CN2CCN(c3ccc(C(=O)NS(=O)(=O)c4ccc(NCC5CCOCC5)c([N+](=O)[O-])c4)c(Oc4cccc5c4CC(=O)N5)c3)CC2)=C(c2ccc(Cl)cc2)C1 [Example 268, 4-(4-{[2-(4-chlorophenyl)-4,4-dimethylcyclohex-1-en-1-yl]methyl}piperazin-1-yl)-N-({3-nitro-4-[(tetrahydro-2H-pyran-4-ylmethyl)amino]phenyl}sulfonyl)-2-[(2-oxo-2,3-dihydro-1H-indol-4-yl)oxy]benzamide]	0.042
